Assay results published in PubChem BioAssay AID248 (DTP/NCI, 2004).
Where “and” joins values, the source holds several entries; their conditions need not be identical. Identical values can stand only once. Inconclusive results and toxic doses are left out.

Tested on: L1210 leukemia ip in BDF1 mice, survival T/C
Test: NCI In Vivo Anticancer Drug Screen. Data for tumor model L1210 Leukemia (intraperitoneal) in B6D2F1 (BDF1) mice
Conditions: endpoint: mean survival time, higher = longer survival
Outline: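 Value reflects the ratio of survival in compound-treated mice to survival in vehicle-treated controls, with both groups carrying the same transplanted tumor.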

`N[C@@H](Cc1ccc(N(CCCl)CCCl)cc1)C(=O)O` was tested, and the T/C (dose: 0.1 mg/kg/injection, schedule: Q01DX015 (ip), vehicle: carboxymethylcellulose (CMC)) was 101 % of control and 102 % of control, the T/C (dose: 0.13 mg/kg/injection, schedule: Q01DX009 (ip), vehicle: Klucel (hydroxypropylcellulose) (HPC)) was 110 % of control and the T/C (dose: 0.2 mg/kg/injection, schedule: Q01DX015 (ip), vehicle: carboxymethylcellulose (CMC)) was 104 % of control and 111 % of control. For the same molecule, the T/C (dose: 0.25 mg/kg/injection, schedule: Q01DX009 (ip), vehicle: Klucel (hydroxypropylcellulose) (HPC)) was 105 % of control and 115 % of control, the T/C (dose: 0.39 mg/kg/injection, schedule: Q01DX001 (ip), vehicle: carboxymethylcellulose (CMC)) was 102 % of control and the T/C (dose: 0.4 mg/kg/injection, schedule: Q01DX015 (ip), vehicle: carboxymethylcellulose (CMC)) was 109 % of control and 117 % of control. For the same molecule, the T/C (dose: 0.45 mg/kg/injection, schedule: Q04DX002 (ip), vehicle: Klucel (hydroxypropylcellulose) (HPC)) was 96 % of control, the T/C (dose: 0.5 mg/kg/injection, schedule: Q01DX005 (ip), vehicle: saline) was 111 % of control and the T/C (dose: 0.5 mg/kg/injection, schedule: Q01DX009 (ip), vehicle: Klucel (hydroxypropylcellulose) (HPC)) was 115 % of control and 116 % of control. The T/C (dose: 0.5 mg/kg/injection, schedule: Q01DX009 (ip), vehicle: saline) was 120 % of control, the T/C (dose: 0.5 mg/kg/injection, schedule: Q03DX Z (ip), vehicle: carboxymethylcellulose (CMC)) was 113 % of control and the T/C (dose: 0.5 mg/kg/injection, schedule: Q03HX008 (ip), vehicle: saline) was 114 % of control. The T/C (dose: 0.5 mg/kg/injection, schedule: Q03HX016 (ip), vehicle: saline) was 124 % of control, the T/C (dose: 0.78 mg/kg/injection, schedule: Q01DX001 (ip), vehicle: carboxymethylcellulose (CMC)) was 108 % of control and the T/C (dose: 0.8 mg/kg/injection, schedule: Q01DX015 (ip), vehicle: carboxymethylcellulose (CMC)) was 121 % of control. The T/C (dose: 0.9 mg/kg/injection, schedule: Q04DX002 (ip), vehicle: Klucel (hydroxypropylcellulose) (HPC)) was 104 % of control and 115 % of control, the T/C (dose: 1.0 mg/kg/injection, schedule: Q01DX005 (ip), vehicle: saline) was 123 % of control and the T/C (dose: 1.0 mg/kg/injection, schedule: Q01DX006 (iv), vehicle: carboxymethylcellulose (CMC)) was 107 % of control. For the same molecule, the T/C (dose: 1.0 mg/kg/injection, schedule: Q01DX009 (oral), vehicle: saline) was 111 % of control, the T/C (dose: 1.0 mg/kg/injection, schedule: Q01DX Z (im), vehicle: carboxymethylcellulose (CMC)) was 96 % of control and the T/C (dose: 1.0 mg/kg/injection, schedule: Q01DX Z (ip), vehicle: carboxymethylcellulose (CMC)) was 94 % of control. The T/C (dose: 1.0 mg/kg/injection, schedule: Q01DX Z (sc), vehicle: carboxymethylcellulose (CMC)) was 94 % of control, the T/C (dose: 1.0 mg/kg/injection, schedule: Q03HX008 (ip), vehicle: saline) was 119 % of control and the T/C (dose: 1.0 mg/kg/injection, schedule: Q#A X Z (ip), vehicle: carboxymethylcellulose (CMC)) was 94 % of control. For the same molecule, the T/C (dose: 1.13 mg/kg/injection, schedule: Q01DX001 (ip), vehicle: carboxymethylcellulose (CMC)) was 111 % of control and 121 % of control, the T/C (dose: 1.56 mg/kg/injection, schedule: Q01DX001 (ip), vehicle: saline) was 104 % of control and 107 % of control and the T/C (dose: 1.6 mg/kg/injection, schedule: Q01DX015 (ip), vehicle: carboxymethylcellulose (CMC)) was 154 % of control. The T/C (dose: 1.8 mg/kg/injection, schedule: Q04DX002 (ip), vehicle: Klucel (hydroxypropylcellulose) (HPC)) was 117 % of control and 118 % of control, the T/C (dose: 2.0 mg/kg/injection, schedule: Q01DX006 (iv), vehicle: carboxymethylcellulose (CMC)) was 110 % of control and the T/C (dose: 2.0 mg/kg/injection, schedule: Q01DX Z (im), vehicle: carboxymethylcellulose (CMC)) was 98 % of control. For the same molecule, the T/C (dose: 2.0 mg/kg/injection, schedule: Q01DX Z (ip), vehicle: carboxymethylcellulose (CMC)) was 93 % of control, the T/C (dose: 2.0 mg/kg/injection, schedule: Q01DX Z (oral), vehicle: carboxymethylcellulose (CMC)) was 115 % of control and the T/C (dose: 2.0 mg/kg/injection, schedule: Q01DX Z (sc), vehicle: carboxymethylcellulose (CMC)) was 104 % of control. The T/C (dose: 2.0 mg/kg/injection, schedule: Q03DX Z (ip), vehicle: carboxymethylcellulose (CMC)) was 153 % of control, the T/C (dose: 2.16 mg/kg/injection, schedule: Q04DX003 (ip), vehicle: saline) was 151 % of control and the T/C (dose: 2.37 mg/kg/injection, schedule: Q01DX009 (ip), vehicle: other) was 150 % of control. The T/C (dose: 3.0 mg/kg/injection, schedule: Q03DX Z (ip), vehicle: carboxymethylcellulose (CMC)) was 115 % of control, the T/C (dose: 3.12 mg/kg/injection, schedule: Q01DX001 (ip), vehicle: saline) was 109 % of control and 112 % of control and the T/C (dose: 3.6 mg/kg/injection, schedule: Q03HX024 (ip), vehicle: other) was 104 % of control. For the same molecule, the T/C (dose: 4.0 mg/kg/injection, schedule: Q01DX001 (ip), vehicle: saline) was 124 % of control, the T/C (dose: 4.0 mg/kg/injection, schedule: Q01DX001 (sc), vehicle: saline) was 121 % of control and the T/C (dose: 4.0 mg/kg/injection, schedule: Q01DX006 (iv), vehicle: carboxymethylcellulose (CMC)) was 102 % of control. For the same molecule, the T/C (dose: 4.0 mg/kg/injection, schedule: Q01DX009 (oral), vehicle: saline) was 151 % of control, the T/C (dose: 4.0 mg/kg/injection, schedule: Q01DX Z (im), vehicle: carboxymethylcellulose (CMC)) was 104 % of control and the T/C (dose: 4.0 mg/kg/injection, schedule: Q01DX Z (ip), vehicle: carboxymethylcellulose (CMC)) was 98 % of control. For the same molecule, the T/C (dose: 4.0 mg/kg/injection, schedule: Q01DX Z (oral), vehicle: carboxymethylcellulose (CMC)) was 104 % of control, the T/C (dose: 4.0 mg/kg/injection, schedule: Q01DX Z (sc), vehicle: carboxymethylcellulose (CMC)) was 102 % of control and the T/C (dose: 4.0 mg/kg/injection, schedule: Q03HX024 (ip), vehicle: saline) was 122 % of control. For the same molecule, the T/C (dose: 4.0 mg/kg/injection, schedule: Q#A X Z (ip), vehicle: carboxymethylcellulose (CMC)) was 110 % of control, the T/C (dose: 6.0 mg/kg/injection, schedule: Q03DX Z (ip), vehicle: carboxymethylcellulose (CMC)) was 106 % of control and the T/C (dose: 6.25 mg/kg/injection, schedule: Q01DX001 (ip), vehicle: saline) was 120 % of control. The T/C (dose: 7.0 mg/kg/injection, schedule: Q01DX001 (ip), vehicle: carboxymethylcellulose (CMC)) was 110 % of control and 115 % of control, the T/C (dose: 7.0 mg/kg/injection, schedule: Q07DX Z (ip), vehicle: carboxymethylcellulose (CMC)) was 107 % of control and the T/C (dose: 7.5 mg/kg/injection, schedule: Q01DX009 (ip), vehicle: saline) was 100 % of control and 107 % of control. For the same molecule, the T/C (dose: 8.0 mg/kg/injection, schedule: Q01DX001 (oral), vehicle: saline) was 123 % of control, the T/C (dose: 8.0 mg/kg/injection, schedule: Q01DX001 (sc), vehicle: saline) was 117 % of control and the T/C (dose: 8.0 mg/kg/injection, schedule: Q01DX005 (ip), vehicle: saline) was 154 % of control. For the same molecule, the T/C (dose: 8.0 mg/kg/injection, schedule: Q01DX006 (iv), vehicle: carboxymethylcellulose (CMC)) was 104 % of control, the T/C (dose: 8.0 mg/kg/injection, schedule: Q01DX009 (ip), vehicle: Klucel (hydroxypropylcellulose) (HPC)) was 121 % of control and the T/C (dose: 8.0 mg/kg/injection, schedule: Q01DX009 (ip), vehicle: saline) was 114 % of control. For the same molecule, the T/C (dose: 8.0 mg/kg/injection, schedule: Q01DX009 (oral), vehicle: saline) was 112 % of control, the T/C (dose: 8.0 mg/kg/injection, schedule: Q01DX009 (sc), vehicle: saline) was 95 % of control and the T/C (dose: 8.0 mg/kg/injection, schedule: Q01DX Z (im), vehicle: carboxymethylcellulose (CMC)) was 98 % of control. For the same molecule, the T/C (dose: 8.0 mg/kg/injection, schedule: Q01DX Z (oral), vehicle: carboxymethylcellulose (CMC)) was 104 % of control, the T/C (dose: 8.0 mg/kg/injection, schedule: Q01DX Z (sc), vehicle: carboxymethylcellulose (CMC)) was 96 % of control and the T/C (dose: 12.0 mg/kg/injection, schedule: Q03DX Z (ip), vehicle: carboxymethylcellulose (CMC)) was 105 % of control. The T/C (dose: 12.5 mg/kg/injection, schedule: Q01DX Z (ip), vehicle: carboxymethylcellulose (CMC)) was 102 % of control, the T/C (dose: 14.0 mg/kg/injection, schedule: Q01DX001 (ip), vehicle: carboxymethylcellulose (CMC)) was 115 % of control and 117 % of control and the T/C (dose: 14.0 mg/kg/injection, schedule: Q07DX Z (ip), vehicle: carboxymethylcellulose (CMC)) was 98 % of control. For the same molecule, the T/C (dose: 16.0 mg/kg/injection, schedule: Q01DX Z (ip), vehicle: carboxymethylcellulose (CMC)) was 106 % of control, the T/C (dose: 16.0 mg/kg/injection, schedule: Q01DX Z (oral), vehicle: carboxymethylcellulose (CMC)) was 102 % of control and the T/C (dose: 16.7 mg/kg/injection, schedule: Q01DX001 (ip), vehicle: saline) was 123 % of control. The T/C (dose: 24.0 mg/kg/injection, schedule: Q03DX Z (ip), vehicle: carboxymethylcellulose (CMC)) was 105 % of control, the T/C (dose: 25.0 mg/kg/injection, schedule: Q01DX001 (ip), vehicle: saline) was 154 % of control and the T/C (dose: 28.0 mg/kg/injection, schedule: Q01DX001 (ip), vehicle: carboxymethylcellulose (CMC)) was 107 % of control. The T/C (dose: 28.0 mg/kg/injection, schedule: Q07DX Z (ip), vehicle: carboxymethylcellulose (CMC)) was 94 % of control, the T/C (dose: 29.0 mg/kg/injection, schedule: Q04DX003 (ip), vehicle: other) was 95 % of control and the T/C (dose: 30.0 mg/kg/injection, schedule: Q01DX001 (ip), vehicle: carboxymethylcellulose (CMC)) was 153 % of control. The T/C (dose: 32.0 mg/kg/injection, schedule: Q01DX001 (ip), vehicle: saline) was 121 % of control, the T/C (dose: 32.0 mg/kg/injection, schedule: Q01DX001 (oral), vehicle: saline) was 93 % of control and the T/C (dose: 32.0 mg/kg/injection, schedule: Q01DX Z (oral), vehicle: carboxymethylcellulose (CMC)) was 104 % of control. The T/C (dose: 56.0 mg/kg/injection, schedule: Q01DX001 (ip), vehicle: carboxymethylcellulose (CMC)) was 107 % of control and 117 % of control and the T/C (dose: 56.0 mg/kg/injection, schedule: Q07DX Z (ip), vehicle: carboxymethylcellulose (CMC)) was 96 % of control.
